Measurements taken from ChEMBL document CHEMBL1201862, “PubChem BioAssay data set” (2004).
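Where inhibition never reached the appropriate level, the endpoint shown equals the highest concentration tested. Otherwise, values were interpolated linearly from a five-concentration, 48-hour dose response in 96-well plates. GI50 marks 50% less growth.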 Activity calls are given as the source filed them. Cut-off read from the data, not from the text of the source: active = GI50 up to about 1.1 µM and inactive = higher.

Assays:
Test in all cases: NCI tumour cell line growth inhibition, 48 h
[1] = system: U-251
[2] = system: PC-3
[3] = system: DU-145
[4] = system: MDA-MB-435
[5] = system: ACHN
[6] = system: HCT-116
[7] = system: K562
[8] = system: MDA-N
[9] = system: UO-31
[10] = system: SK-OV-3
[11] = system: SN12C
[12] = system: SF-295
[13] = system: A498
[14] = system: SNB-75
[15] = system: A549
[16] = system: BT-549
[17] = system: CAKI-1
[18] = system: HOP-62
[19] = system: OVCAR-3
[20] = system: SNB-78

Measured: GI50

Cc1ccc(S(=O)(=O)NCCSS(=O)(=O)c2ccc(C)cc2)cc1
inactive: [1] 25.5 µM | [2] 27.6 µM | [3] 42.6 µM | [4] 22.3 µM | [5] 32.8 µM | [6] 15.1 µM | [7] 30.7 µM | [8] 23.1 µM | [9] 28 µM | [10] > 100 µM | [11] 29.7 µM | [12] 35.6 µM | [13] 11.3 µM | [14] 30.4 µM | [15] 25.9 µM

O=c1c(-c2ccccc2)c(SCCN2CCOCC2)n(-c2ccccc2)c(=S)n1-c1ccccc1
inactive: [16] > 100 µM | [1] > 100 µM | [2] > 100 µM | [3] > 100 µM | [4] > 100 µM | [5] > 100 µM | [17] 52 µM | [18] 74 µM | [7] > 100 µM | [10] > 100 µM | [19] > 100 µM | [12] 83.6 µM | [13] > 100 µM | [14] 26.4 µM

CCNC(=S)NNC(=O)c1nsc2ccccc12
inactive: [1] 94.2 µM | [5] > 100 µM | [6] 96.8 µM | [18] 73.6 µM | [7] 64.9 µM | [9] 52.8 µM | [19] 49.1 µM | [11] 55.1 µM | [20] > 100 µM | [14] 34.5 µM | [15] > 100 µM

COc1ccc2c(O)c3[n+](cc2c1OC)CCc1cc2c(cc1-3)OCO2
inactive: [16] 72.4 µM | [1] > 100 µM | [2] > 100 µM | [3] > 100 µM | [4] 24.8 µM | [5] > 100 µM | [17] > 100 µM | [6] 41.8 µM | [18] > 100 µM | [7] 38.5 µM | [8] 33.6 µM | [10] > 100 µM | [19] > 100 µM | [11] > 100 µM | [12] 42.9 µM | [13] 61.5 µM | [14] > 100 µM | [15] > 100 µM

CS(C)(=O)=Nn1c(=O)n2n(c1=O)C1c3ccccc3C2c2ccccc21
inactive: [1] > 100 µM | [2] > 100 µM | [3] > 100 µM | [4] > 100 µM | [5] > 100 µM | [17] > 100 µM | [18] > 100 µM | [7] > 100 µM | [8] > 100 µM | [9] > 100 µM | [10] > 100 µM | [19] > 100 µM | [12] > 100 µM | [13] > 100 µM | [15] > 100 µM

C1CSCCSCCSCCSC1
inactive: [16] > 100 µM | [1] > 100 µM | [2] > 100 µM | [3] > 100 µM | [4] > 100 µM | [5] > 100 µM | [17] > 100 µM | [6] > 100 µM | [18] > 100 µM | [8] > 100 µM | [9] > 100 µM | [10] > 100 µM | [19] > 100 µM | [11] > 100 µM | [12] > 100 µM | [13] > 100 µM | [14] > 100 µM | [15] > 100 µM
